The text below walks through data of patent US6811990B1, “Methods and compositions for coupled luminescent assays” (priority 2001, dated 2004).

The subject of one series is G3PDH or PGK. Briefly: Stop reagent test in DeathTRAK reaction with G3PDH test enzyme. Type of series: biochemical. As to conditions: ~3 mM final BPV, added after 21 minutes, with and without added PGK. An excerpt: In another aspect, the present invention provides methods and compositions for a single-timepoint coupled luminescent assay, making use of a stop reagent to end the production of the high-energy molecule that is the luciferase substrate, while allowing the luciferase reaction to continue. In a preferred embodiment of this concept, an inhibitor of G3PDH or PGK is used to stop production of ATP in the DeathTRAK reactions of Examples 1 and 2. […] It is also possible to perform a single read without a stop reagent, but the stop reagent allows the read to be done at a time convenient to the user, multiple times, or for an extended period. […] Any molecule which inhibits G3PDH and/or PGK, but inhibits luciferase to a lesser or insignificant degree, might be used.
To a 0.5-mL aliquot of this cocktail, 0.0016 mL of 1:1,000,000-diluted PGK were added (termed “+PGK” cocktail). Two 0.045-mL aliquots of the standard unoptimized cocktail and two 0.045-mL aliquots of the “+PGK” cocktail were measured into a luminescent microtiter plate. 0.005 mL of 1:100,000-diluted G3PDH was transferred to each of these four aliquots of cocktail. […] Use of this or an alternative stop reagent allows the user to delay reading the plate, while maintaining the relative signal strengths of the samples.

For series [1], the system named is E. coli strain K1. Description: DeathTRAK proliferation/viability mode after polymyxin B/lysozyme lysis, antibiotics on E. coli. As to conditions: for Proliferation/Viability: E. coli, Table V, DeathTRAK readout after lytic agent. Type of series: cell-based. The protocol: (§1) FIGS. 13-15 illustrate the use of cytotoxicity/proliferation mode to characterize the effects of various antibiotics on E. coli cells. First, the cytotoxicity signal was obtained by adding the DeathTRAK reagent cocktail directly to the toxicity reaction, three hours after the antibiotics were added to the E. coli culture. The luminance was measured and recorded (FIG. 13), whereupon the lytic agent was added, and the luminance was immediately measured again (FIG. 14).
(§2) E. coli (strain K1, obtained from Dr. Craig Rubens of Children's Hospital and Regional Medical Center, Seattle, Wash.) were inoculated from a frozen permanent into 1-2 mL of LB, grown overnight, diluted 1:20 into LB, grown a further 106 minutes at 37C with 240 rpm shaking, harvested by centrifugation, washed twice with LB, and resuspended to a final A600 of 1.549. It was determined by colony-forming unit assays that an A600 of 2.18 corresponds to ˜3.02×10^8 cells/mL. This was diluted to 200,000/mL and a 10% volume of 10 mM dithiothreitol and 1% protease inhibitor cocktail in LB was added (yielding 0.1% protease inhibitor cocktail after mixing). 55 μL of this mixture was distributed to each test well of a 96-well white luminance microtiter plate, whereupon 5 μL of antibiotic or PBS (vehicle) was added. The plate was shaken at 240 rpm for 3 hours at 37C. 40 μL of DeathTRAK cocktail was then added and luminance was read for ˜8 minutes. The lytic agent was then made up as equal parts 6000 units/mL polymyxin B and 50% lysozyme, both in PBS. 10 μL of this lytic agent was added to each well and the second luminance readout (proliferation/viability) was taken.

The test system of series [2] is E. coli strain K1. Description: DeathTRAK cytotoxicity mode, antibiotics on E. coli. The protocol:
as §1, §2

The next series relates to DeathTRAK signal. Description: Effect of detergent on the DeathTRAK signal. Type of series: biochemical. The note with it: at 0.1% Nonidet P-40; changes very little above approximately 0.1%. The text has this:
FIG. 12 illustrates the use of cytotoxicity/proliferation mode to measure both the cytotoxic effects and the total cell number after addition of the detergent Nonidet P40 to the mammalian cell line 841 CON. Similar results have been obtained with the PC-3 prostate cancer and T24 bladder-cancer cell lines. In these experiments, the detergent is used as both the toxin and the final lytic agent. Thus the cytotoxicity signal in FIG. 12 represents the signal obtained after the indicated quantities of detergent were added to the cells, and the proliferation signal in the same figure represents the signals obtained after an additional 0.2% Nonidet P-40 was added to all the cells. […] Thus Nonidet P-40 can be used as the universal lytic agent for measuring proliferation of mammalian cells, provided that if it is desired to compare the cytotoxicity and proliferation signals, the final signal must be corrected for the inhibitory effect of the detergent. If the final detergent concentration used is above approximately 0.1%, then this correction will consist essentially of multiplication by a constant. However, if proliferation signals alone are to be compared, this correction is not necessary. Note that in FIG. 12, the proliferation signal is fairly constant. This is because each experiment began with the same number of cells seeded into each well. […]

Series [3] concerns Group-A Streptococci.
Description: (§3) The A600 was 0.356. […] After washing the cells were grown for 90 minutes at 37C with 240 rpm shaking. Antibiotics or PBS (vehicle) were then added in 5 μL, and the protective cocktail containing dithiothreitol and protease inhibitor cocktail was added in a further 5 μL. The cells were incubated at 37C with 240 rpm shaking for a further 90 minutes, whereupon the DeathTRAK cocktail was added and the cytotoxicity read as described above for Gram negatives. The total-lysis agent, 10 μL of 2% Nonidet P-40, was then added, and the proliferation/viability signal was read as above for Gram negatives.
The next series concerns E. coli. Description: Colony-forming unit (CFU) tests of antibiotic-treated cultures. It counts as cell-based. As to conditions: E. coli cultures plated at various dilutions.
In series [4] the test system is Group-A Streptococci. Description: DeathTRAK proliferation/viability mode after Nonidet P-40 lysis, Group-A Streptococci. Type of series: cell-based, Group-A Streptococcus. The note with it: 90 minutes with antibiotic, after Nonidet P-40 lysis (FIG. 17). An excerpt: These are Gram positive organisms. […] However, both cytotoxicity and proliferation effects are seen. […] Finally, the result with gentamicin is distinctive.

Series [5] deals with Group-A Streptococci. Description: DeathTRAK cytotoxicity mode, antibiotics on Group-A Streptococci. As to conditions: 90 minutes with antibiotic (FIG. 16).
Description: as §3
The mark [6] stands for this setting: E. coli K1, three hours with antibiotic, after lytic agent (FIG. 14).

Read-outs that look alike come from different tables or passages of the source.

On to `O=C(O)C(=O)CBr` [BPV, bromopyruvic acid], for which the “increase in luminance (ATP production) in DeathTRAK reaction” value with G3PDH or PGK is listed as “stopped the increase in luminance”.

With `Nc1ccc(S(N)(=O)=O)cc1` [Sulfanilamide], the effect on proliferation/viability entry with E. coli strain K1 [1] (setting [6]) is “no toxicity or effect on proliferation/viability”. In the series with E. coli strain K1 [2], the Cytotoxicity entry is listed as “−” and the cytotoxicity signal entry was “no toxicity”.

Regarding Nonidet P-40, the “inhibition of DeathTRAK signal” value with DeathTRAK signal is on record as “approximately 45%”.

For `CC1(C)S[C@@H]2[C@H](NC(=O)C(C(=O)O)c3ccccc3)C(=O)N2[C@H]1C(=O)O` (some centres unmarked) [Carbenicillin], the cytotoxicity signal result with Group-A Streptococci [3] is “identified as a lytic agent”. The effect on proliferation/viability result in the series with E. coli strain K1 [1] (setting [6]) is listed as “strong inhibitory effect on proliferation/viability”. The Proliferation/Viability result with E. coli strain K1 [1] is reported as “+”. In addition, in the series with E. coli strain K1 [2], the Cytotoxicity entry was “+” and the cytotoxicity signal entry is listed as “strong cytotoxicity”. Further, the “toxicity by CFU assay” value with E. coli is on record as “toxic”.

For the compound Gentamicin, in the series on E. coli strain K1 [1] (E. coli K1, similar experiment, 90 minutes (FIG. 15)), the effect on proliferation/viability entry was “strong effect on proliferation/viability”. The Proliferation/Viability result in the series on E. coli strain K1 [1] is listed as “+”. In the series on Group-A Streptococci [4], the proliferation/viability signal result is on record as “strongly toxic”. For the same compound, in the series with E. coli strain K1 [2] (E. coli K1, 90 minutes (FIG. 15)), the Cytotoxicity result is listed as “no cytotoxicity”. In the series on Group-A Streptococci [5], the cytotoxicity signal result is “negative toxicity signal”.

Turning to `CN[C@H](CC(C)C)C(=O)N[C@H]1C(=O)N[C@@H](CC(N)=O)C(=O)N[C@H]2C(=O)N[C@H]3C(=O)N[C@H](C(=O)N[C@H](C(=O)O)c4cc(O)cc(O)c4-c4cc3ccc4O)[C@H](O)c3ccc(c(Cl)c3)Oc3cc2cc(c3O[C@@H]2O[C@H](CO)[C@@H](O)[C@H](O)[C@H]2O[C@H]2C[C@](C)(N)[C@H](O)[C@H](C)O2)Oc2ccc(cc2Cl)[C@H]1O` [Vancomycin], the effect on proliferation/viability result in the series with E. coli strain K1 [1] (setting [6]) is “slight inhibition of proliferation/viability”. The Proliferation/Viability entry with E. coli strain K1 [1] is listed as “+”. Further, the proliferation/viability signal entry in the series with Group-A Streptococci [4] is listed as “very strong reduction in the proliferation/viability signal”. Also, the cytotoxicity signal result in the series with E. coli strain K1 [2] (E. coli K1, three hours after antibiotics were added (FIG. 13)) is recorded as “slight but statistically significant toxicity”; in the series on Group-A Streptococci [5], “little or no direct cytotoxicity”. In the series with E. coli strain K1 [2] (E. coli, Table V, DeathTRAK cytotoxicity readout), the Cytotoxicity result is listed as “+”. Also, the “toxicity by CFU assay” value with E. coli is listed as “toxic”.
